Data taken from BindingDB's records for doi:10.1021/np980173q (Kagoshima University, 1998).
pIC50: −log10 of the molar value.

Tested on: Enterococcus faecalis
Experiment: Antimicrobial activity against Enterococcus faecalis 12964

Question: How did the pIC50 turn out when `CC(=CCn1c[n+](C)c2ncnc(N)c21)CC[C@@]1(C)[C@H](C)CC[C@@]2(C)C(C)=CCC[C@H]12` [AGELASINE B] was run?
Answer: 4.86
